# Measured values taken from PubChem BioAssay (NCI).
#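 96-well plates; 48 h exposure; 5 concentrations. Endpoints by linear interpolation between flanking doses. Not reached: highest tested concentration assigned. The concentration for 50% growth inhibition is given as GI50. The concentration for full growth arrest is given as TGI.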
# Experiments:
# Assay in all cases: growth of human tumour cells (NCI), 48 h
# HT29 colon = tested on: HT29 colon
# K-562 leukemia = tested on: K-562 leukemia
# A498 renal = tested on: A498 renal
# T-47D breast = tested on: T-47D breast
# A549 NSCLC = tested on: A549 NSCLC
# MOLT-4 leukemia = tested on: MOLT-4 leukemia
# HS 578T breast = tested on: HS 578T breast
# SK-MEL-28 melanoma = tested on: SK-MEL-28 melanoma
# PC-3 prostate = tested on: PC-3 prostate
# U251 CNS = tested on: U251 CNS
# SK-MEL-5 melanoma = tested on: SK-MEL-5 melanoma
# OVCAR-3 ovarian = tested on: OVCAR-3 ovarian
# NCI/ADR-RES ovarian = tested on: NCI/ADR-RES ovarian
# SF-268 CNS = tested on: SF-268 CNS
# OVCAR-5 ovarian = tested on: OVCAR-5 ovarian
# MCF7 breast = tested on: MCF7 breast
# KM12 colon = tested on: KM12 colon
# BT-549 breast = tested on: BT-549 breast
# OVCAR-8 ovarian = tested on: OVCAR-8 ovarian
# HOP-92 NSCLC = tested on: HOP-92 NSCLC
# UACC-257 melanoma = tested on: UACC-257 melanoma
# IGROV1 ovarian = tested on: IGROV1 ovarian
# HCC-2998 colon = tested on: HCC-2998 colon
# SF-295 CNS = tested on: SF-295 CNS
# HL-60(TB) leukemia = tested on: HL-60(TB) leukemia
# HCT-15 colon = tested on: HCT-15 colon
# MDA-MB-231 breast = tested on: MDA-MB-231 breast
# SF-539 CNS = tested on: SF-539 CNS
# RPMI-8226 leukemia = tested on: RPMI-8226 leukemia
# SW-620 colon = tested on: SW-620 colon
# LOX IMVI melanoma = tested on: LOX IMVI melanoma
# COLO 205 colon = tested on: COLO 205 colon
# CAKI-1 renal = tested on: CAKI-1 renal
# UACC-62 melanoma = tested on: UACC-62 melanoma
# SK-MEL-2 melanoma = tested on: SK-MEL-2 melanoma
# SN12C renal = tested on: SN12C renal
# CCRF-CEM leukemia = tested on: CCRF-CEM leukemia
# NCI-H23 lung = tested on: NCI-H23 lung
# HOP-62 NSCLC = tested on: HOP-62 NSCLC
# RXF 393 renal = tested on: RXF 393 renal
# OVCAR-4 ovarian = tested on: OVCAR-4 ovarian
# TK-10 renal = tested on: TK-10 renal
# MDA-MB-435 = tested on: MDA-MB-435
# HCT-116 colon = tested on: HCT-116 colon
# NCI-H460 lung = tested on: NCI-H460 lung
# 786-0 renal = tested on: 786-0 renal
# DU-145 prostate = tested on: DU-145 prostate
# SNB-75 CNS = tested on: SNB-75 CNS
# SK-OV-3 ovarian = tested on: SK-OV-3 ovarian
# M14 melanoma = tested on: M14 melanoma
# SNB-19 CNS = tested on: SNB-19 CNS
# ACHN renal = tested on: ACHN renal
# MALME-3M melanoma = tested on: MALME-3M melanoma
# UO-31 renal = tested on: UO-31 renal
# NCI-H226 lung = tested on: NCI-H226 lung
# NCI-H522 lung = tested on: NCI-H522 lung
smiles,measurement,setting,value
CCN(Cc1ccccc1F)c1ccc(CO)c(Cl)c1,GI50,HT29 colon,3.38 µM
same,TGI,HT29 colon,21.4 µM
same,GI50,K-562 leukemia,0.535 µM
same,TGI,K-562 leukemia,> 39 µM
same,GI50,A498 renal,< 0.0179 µM
same,TGI,A498 renal,0.0594 µM
same,GI50,T-47D breast,< 0.0213 µM
same,TGI,T-47D breast,0.177 µM
same,GI50,A549 NSCLC,1.03 µM
same,TGI,A549 NSCLC,21.8 µM
same,GI50,MOLT-4 leukemia,22.5 µM
same,TGI,MOLT-4 leukemia,56.2 µM
same,GI50,HS 578T breast,26.5 µM
same,TGI,HS 578T breast,> 66.4 µM
same,GI50,SK-MEL-28 melanoma,13.5 µM
same,TGI,SK-MEL-28 melanoma,31.3 µM
same,GI50,PC-3 prostate,18.9 µM
same,TGI,PC-3 prostate,> 62.8 µM
same,GI50,U251 CNS,0.256 µM
same,TGI,U251 CNS,24.2 µM
same,GI50,SK-MEL-5 melanoma,2.66 µM
same,TGI,SK-MEL-5 melanoma,21.1 µM
same,GI50,OVCAR-3 ovarian,0.176 µM
same,TGI,OVCAR-3 ovarian,1.5 µM
same,GI50,NCI/ADR-RES ovarian,15.9 µM
same,TGI,NCI/ADR-RES ovarian,52.8 µM
same,GI50,SF-268 CNS,26.6 µM
same,TGI,SF-268 CNS,> 60.7 µM
same,GI50,OVCAR-5 ovarian,0.0428 µM
same,TGI,OVCAR-5 ovarian,0.234 µM
same,GI50,MCF7 breast,0.0892 µM
same,TGI,MCF7 breast,12.7 µM
same,GI50,KM12 colon,18.5 µM
same,TGI,KM12 colon,47.7 µM
same,GI50,BT-549 breast,15.8 µM
same,TGI,BT-549 breast,30.6 µM
same,GI50,OVCAR-8 ovarian,13.2 µM
same,TGI,OVCAR-8 ovarian,> 57 µM
same,GI50,HOP-92 NSCLC,0.301 µM
same,TGI,HOP-92 NSCLC,8.72 µM
same,GI50,UACC-257 melanoma,< 0.0346 µM
same,TGI,UACC-257 melanoma,0.134 µM
same,GI50,IGROV1 ovarian,< 0.0231 µM
same,GI50,HCC-2998 colon,8.41 µM
same,TGI,HCC-2998 colon,25 µM
same,GI50,SF-295 CNS,0.7 µM
same,TGI,SF-295 CNS,17.2 µM
same,GI50,HL-60(TB) leukemia,17.7 µM
same,TGI,HL-60(TB) leukemia,47.3 µM
same,GI50,HCT-15 colon,11.5 µM
same,TGI,HCT-15 colon,47.2 µM
same,GI50,MDA-MB-231 breast,16.3 µM
same,TGI,MDA-MB-231 breast,41.7 µM
same,GI50,SF-539 CNS,16.8 µM
same,TGI,SF-539 CNS,34.5 µM
same,GI50,RPMI-8226 leukemia,0.796 µM
same,TGI,RPMI-8226 leukemia,22.8 µM
same,GI50,SW-620 colon,0.49 µM
same,TGI,SW-620 colon,> 46.5 µM
same,GI50,LOX IMVI melanoma,20.3 µM
same,TGI,LOX IMVI melanoma,44.2 µM
same,GI50,COLO 205 colon,2.45 µM
same,TGI,COLO 205 colon,7.86 µM
same,GI50,CAKI-1 renal,3.81 µM
same,TGI,CAKI-1 renal,39.9 µM
same,GI50,UACC-62 melanoma,0.0409 µM
same,TGI,UACC-62 melanoma,0.992 µM
same,GI50,SK-MEL-2 melanoma,1.81 µM
same,TGI,SK-MEL-2 melanoma,19.9 µM
same,GI50,SN12C renal,13.5 µM
same,TGI,SN12C renal,38.6 µM
same,GI50,CCRF-CEM leukemia,24.2 µM
same,TGI,CCRF-CEM leukemia,> 75.4 µM
same,GI50,NCI-H23 lung,14.6 µM
same,TGI,NCI-H23 lung,57.1 µM
same,GI50,HOP-62 NSCLC,1.34 µM
same,TGI,HOP-62 NSCLC,17.8 µM
same,GI50,RXF 393 renal,4.35 µM
same,TGI,RXF 393 renal,24.8 µM
same,GI50,OVCAR-4 ovarian,0.0793 µM
same,TGI,OVCAR-4 ovarian,5.88 µM
same,GI50,TK-10 renal,< 0.0201 µM
same,TGI,TK-10 renal,0.0651 µM
same,GI50,MDA-MB-435,17.2 µM
same,TGI,MDA-MB-435,40.2 µM
same,GI50,HCT-116 colon,< 0.0273 µM
same,TGI,HCT-116 colon,11.3 µM
same,GI50,NCI-H460 lung,0.0604 µM
same,TGI,NCI-H460 lung,11 µM
same,GI50,786-0 renal,15.9 µM
same,TGI,786-0 renal,41 µM
same,GI50,DU-145 prostate,18.4 µM
same,TGI,DU-145 prostate,> 60 µM
same,GI50,SNB-75 CNS,11 µM
same,TGI,SNB-75 CNS,46.4 µM
same,GI50,SK-OV-3 ovarian,4.28 µM
same,TGI,SK-OV-3 ovarian,17.9 µM
same,GI50,M14 melanoma,19.9 µM
same,TGI,M14 melanoma,41.7 µM
same,GI50,SNB-19 CNS,28.4 µM
same,TGI,SNB-19 CNS,> 94.6 µM
same,GI50,ACHN renal,19.2 µM
same,TGI,ACHN renal,> 53.4 µM
same,GI50,MALME-3M melanoma,17.7 µM
same,TGI,MALME-3M melanoma,39.5 µM
same,GI50,UO-31 renal,13.2 µM
same,TGI,UO-31 renal,46.4 µM
same,GI50,NCI-H226 lung,0.0137 µM
same,TGI,NCI-H226 lung,0.0511 µM
same,GI50,NCI-H522 lung,16.3 µM
same,TGI,NCI-H522 lung,39.1 µM
